According to US20040018561A1, “Peptide compounds and their use as protease substrates” (priority 2002, published 2004):
*1 amine or outer side, *2 acyl side, *3 side chain or, on linkers, in order; H or OH if unused. Where a SMILES comes first, the peptide text is derived from it. [ ]: non-standard residue; d: D form. The star is where a group is joined. Dnp = O=[N+]([O-])c1ccc(*)c([N+](=O)[O-])c1; X2 = O=C([C@H](CCCCOCc1ccccc1)N[*:1])[*:2]; X1 = O=C([C@H](CCCCOc1ccccc1)N[*:1])[*:2]; Mca = COc1ccc2c(CC(=O)*)cc(=O)oc2c1; Dap = NC[C@H](N)C(=O)O

What was measured:
[1] = octanol/water; Tao et al., J. Mol. Model. 1999; cited from earlier work
MMP-1 = biological target: T1, MMP-1 (Homo sapiens, UniProt P03956); assay: Km and kcat/Km of substrates with MMP-1; type: biochemical; settings: summary of Table 1
T1 sequence (P03956 100-469): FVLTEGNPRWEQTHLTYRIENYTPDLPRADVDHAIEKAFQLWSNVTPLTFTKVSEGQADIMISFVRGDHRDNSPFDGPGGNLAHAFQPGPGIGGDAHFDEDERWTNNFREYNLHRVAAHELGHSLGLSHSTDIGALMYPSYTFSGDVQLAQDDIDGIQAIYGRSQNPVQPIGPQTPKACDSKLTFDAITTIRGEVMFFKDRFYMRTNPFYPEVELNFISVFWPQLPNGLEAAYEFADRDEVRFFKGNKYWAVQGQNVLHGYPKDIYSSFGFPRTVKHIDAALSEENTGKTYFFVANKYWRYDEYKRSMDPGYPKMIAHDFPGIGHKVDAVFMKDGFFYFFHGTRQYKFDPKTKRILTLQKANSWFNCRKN

MMP-7 = biological target: T2, MMP-7 (Homo sapiens, UniProt P09237); assay: Km and kcat/Km of substrates with MMP-7; type: biochemical; settings: summary of Table 1
T2 sequence (P09237 95-267): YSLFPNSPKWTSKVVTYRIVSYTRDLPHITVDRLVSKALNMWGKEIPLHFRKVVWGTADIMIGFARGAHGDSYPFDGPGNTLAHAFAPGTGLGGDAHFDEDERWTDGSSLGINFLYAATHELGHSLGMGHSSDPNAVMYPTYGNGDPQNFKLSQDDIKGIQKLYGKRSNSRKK

SMILES | Log D contribution in a peptide [1] | kcat with MMP-1 (in words) (MMP-1) | kcat with MMP-7 (in words) (MMP-7)
N[C@@H](Cc1c[nH]cn1)C(=O)O [histidine] | −0.44 | – | –
N[C@@H](CC(=O)O)C(=O)O [aspartic acid] | −2.06 | – | –
N=C(N)NCCC[C@H](N)C(=O)O [arginine] | −1.65 | – | –
N[C@@H](CCC(=O)O)C(=O)O [glutamic acid] | −2.19 | – | –
NCCCC[C@H](N)C(=O)O [lysine] | −2.27 | – | –
C[C@H](N)C(=O)O [alanine] | −0.27 | – | –
C[C@@H](O)[C@H](N)C(=O)O [threonine] | −0.26 | – | –
COc1ccc2c(CC(=O)N[C@H](CCCNC(=N)N)C(=O)N3CCC[C@H]3C(=O)N[C@@H](CC(C)C)C(=O)NCC(=O)N[C@@H](CCCCOCc3ccccc3)C(=O)N[C@@H](CNc3ccc([N+](=O)[O-])cc3[N+](=O)[O-])C(=O)N[C@@H](C)C(=O)N[C@H](CCCNC(=N)N)C(=O)N[C@H](CCC(=O)O)C(=O)N[C@H](CCCNC(=N)N)C(N)=O)cc(=O)oc2c1 [Compound 21, N-2-[(7-methoxy-2-oxo-2H-chromen-4-yl)acetyl]-D-arginyl-L-prolyl-L-leucylglycyl-6-(benzyloxy)-L-norleucyl-3-[(2,4-dinitrophenyl)amino]-L-alanyl-L-alanyl-D-arginyl-D-alpha-glutamyl-D-argininamide] (Mca-[dR]PLG[X2][Dap](Dnp)A[dR][dE][dR]-NH2) | – | low kcat or kcat of zero | low kcat or kcat of zero
NCC(=O)O [glycine] | −0.22 | – | –
NC(=O)C[C@H](N)C(=O)O [asparagine] | −0.98 | – | –
COc1ccc2c(CC(=O)N[C@@H](CCCNC(=N)N)C(=O)N3CCC[C@H]3C(=O)N[C@@H](CC(C)C)C(=O)NCC(=O)N[C@@H](CCCCOCc3ccccc3)C(=O)N[C@@H](CNc3ccc([N+](=O)[O-])cc3[N+](=O)[O-])C(=O)N[C@@H](C)C(=O)N[C@@H](CCCNC(=N)N)C(=O)N[C@@H](CCC(=O)O)C(=O)N[C@@H](CCCNC(=N)N)C(N)=O)cc(=O)oc2c1 [Compound 20, N-2-[(7-methoxy-2-oxo-2H-chromen-4-yl)acetyl]-L-arginyl-L-prolyl-L-leucylglycyl-6-(benzyloxy)-L-norleucyl-3-[(2,4-dinitrophenyl)amino]-L-alanyl-L-alanyl-L-arginyl-L-alpha-glutamyl-L-argininamide] (Mca-RPLG[X2][Dap](Dnp)ARER-NH2) | – | low kcat or kcat of zero | low kcat or kcat of zero
COc1ccc2c(CC(=O)N[C@H](CCCNC(=N)N)C(=O)N3CCC[C@H]3C(=O)N[C@@H](CC(C)C)C(=O)NCC(=O)N[C@@H](CCCCOc3ccccc3)C(=O)N[C@@H](CNc3ccc([N+](=O)[O-])cc3[N+](=O)[O-])C(=O)N[C@@H](C)C(=O)N[C@H](CCCNC(=N)N)C(=O)N[C@H](CCC(=O)O)C(=O)N[C@H](CCCNC(=N)N)C(N)=O)cc(=O)oc2c1 [Compound 25, N-2-[(7-methoxy-2-oxo-2H-chromen-4-yl)acetyl]-D-arginyl-L-prolyl-L-leucylglycyl-6-phenoxy-L-norleucyl-3-[(2,4-dinitrophenyl)amino]-L-alanyl-L-alanyl-D-arginyl-D-alpha-glutamyl-D-argininamide] (Mca-[dR]PLG[X1][Dap](Dnp)A[dR][dE][dR]-NH2) | – | low kcat or kcat of zero | low kcat or kcat of zero
